Reference: patent publication US9068343B2, “Construction element” (Termite Solutions Victoria Pty Ltd., priority 2010, dated 2015)

Key:
[1] = Thermogravimetric study of the stability of bifenthrin (thermal balance); format: physicochemical; details: thermogravimetric study using a thermal balance; threshold temperature of decomposition
Description: In order to determine whether extrusion-based masterbatch preparation was possible without excessive thermal decomposition or volatilization of bifenthrin, a thermogravimetric study was performed using a thermal balance.

[2] = Evaporative loss of active during extrusion-based masterbatch preparation; format: physicochemical; details: 10% bifenthrin melt mixed into EVA-LLDPE-silicate carrier resin, masterbatch pellets
Description: A masterbatch polymeric carrier resin was prepared by melt mixing bifenthrin (10% wt. percentage), low melting EVA polymer and either a high melt index linear low density polyethylene (LLDPE) or low density polyethylene (LDE).
In this way, 10% of the active bifenthrin was incorporated into an EVA-LLDPE-silicate carrier resin and masterbatch pellets produced.

With `Cc1c(COC(=O)[C@@H]2[C@H](/C=C(\Cl)C(F)(F)F)C2(C)C)cccc1-c1ccccc1` (racemic) [bifenthrin] the “temperature at which degradation of the active occurs” value [1] was “about 180 °C” and the “evaporative losses of the active” value [2] was “no measurable evaporative losses”.
